Patent US6090802A, “1- Methylcarbapenem derivatives” (Sankyo Company, Limited, priority 1995, dated 2000)
In brackets after ≈: the same amount, converted by molar mass.

Assays:
Escherichia coli NIHJ = assay: Antibacterial activity, agar plate dilution method (MIC); format: cell-based; details: Microorganism B: Escherichia coli NIHJ; read-out: Minimal inhibitory concentration
Method: Antibacterial activity was measured by the agar plate dilution method, whereby the minimal inhibitory concentration (μg/ml) against various pathogenic bacteria was determined. In the Table, bacteria A, B and C provided for the test are as follows: B: Escherichia coli NIHJ

[1] = test system: Pseudomonas aeruginosa 1001; assay: as above; format: cell-based; details: Microorganism C: Pseudomonas aeruginosa 1001; read-out: Minimal inhibitory concentration
Method: Antibacterial activity was measured by the agar plate dilution method, whereby the minimal inhibitory concentration (μg/ml) against various pathogenic bacteria was determined. In the Table, bacteria A, B and C provided for the test are as follows: C: Pseudomonas aeruginosa 1001

[2] = test system: Staphylococcus aureus 209P; assay: as above; format: cell-based; details: Microorganism A: Staphylococcus aureus 209P; read-out: Minimal inhibitory concentration
Method: Antibacterial activity was measured by the agar plate dilution method, whereby the minimal inhibitory concentration (μg/ml) against various pathogenic bacteria was determined. In the Table, bacteria A, B and C provided for the test are as follows: A: Staphylococcus aureus […]

[3] = in words; background art; cited from earlier work

| Structure (SMILES) | MIC (Escherichia coli NIHJ) | MIC [1] | MIC [2] | nephrotoxicity [3] |
| --- | --- | --- | --- | --- |
| C[C@@H](O)[C@H]1C(=O)N2C(C(=O)O)=C(S[C@@H]3CN[C@H](C(=O)N4CC[C@H](NC(=O)[C@@H]5CCCN5)C4)C3)[C@H](C)[C@H]12 [Ex. 1, (1R,5S,6S)-6-(1R)-[1-Hydroxyethyl]-1-methyl-2-[(2S,4S)-2-[(3S)-3-(L-prolylamino)pyrrolidin-1-ylcarbonyl]pyrrolidin-4-ylthio]-1-carbapen-2-em-3-carboxylic acid] | ≤ 0.01 mg/L | 0.1 mg/L (≈ 0.192 µM) | ≤ 0.01 mg/L | – |
| C[C@@H](O)[C@H]1C(=O)N2C(C(=O)O)=C(S[C@@H]3CN[C@H](C(=O)N4CC[C@H](NC(=O)CNC(=N)N)C4)C3)[C@H](C)[C@H]12 [Ex. 8] | ≤ 0.01 mg/L | 0.05 mg/L (≈ 0.0955 µM) | ≤ 0.01 mg/L | – |
| C[C@@H](O)[C@H]1C(=O)N2C(C(=O)O)=C(S[C@@H]3CN[C@H](C(O)CC(=O)N4CC[C@H](N)C4)C3)[C@H](C)[C@H]12 (stereo partly drawn) [Ex. 12, (1R,5S,6S)-2-[(2S,4S)-2-[1-Hydroxy-2-[(3S)-3-aminopyrrolidin-1-ylcarbonyl]ethyl]-pyrrolidin-4-ylthio]-6-[(1R)-1-hydroxyethyl]-1-methyl-1-carbapen-2-em-3-carboxylic acid] | 0.02 mg/L (≈ 0.0427 µM) | 0.2 mg/L (≈ 0.427 µM) | ≤ 0.01 mg/L | – |
| C[C@@H](O)[C@H]1C(=O)N2C(C(=O)O)=C(S[C@@H]3CN[C@H](C(=O)N4CC(NC(=O)CCNC(=N)N)C4)C3)[C@H](C)[C@H]12 [Ex. 17, (1R,5S,6S)-2-[(2S,4S)-2-[3-(3-Guanidinopropanoylamino)azetidin-1-ylcarbonyl]-pyrrolidin-4-ylthio]-6-[(1R)-1-hydroxyethyl]-1-methyl-1-carbapen-2-em-3-carboxylic acid] | ≤ 0.01 mg/L | 0.05 mg/L (≈ 0.0955 µM) | ≤ 0.01 mg/L | – |
| C[C@@H](NC(=N)N)C(=O)N[C@H]1CCN(C(=O)[C@@H]2C[C@H](SC3=C(C(=O)O)N4C(=O)[C@H]([C@@H](C)O)[C@H]4[C@H]3C)CN2)C1 [Ex. 27, (1R,5S,6S)-2-[(2S,4S)-2-[(3S)-3-[(2R)-2-Guanidino-2-methylacetylamino]pyrrolidin-1-ylcarbonyl]pyrrolidin-4-ylthio]-6-[(1R)-1-hydroxyethyl]-1-methyl-1-carbapen-2-em-3-carboxylic acid] | ≤ 0.01 mg/L | 0.05 mg/L (≈ 0.093 µM) | ≤ 0.01 mg/L | – |
| C[C@@H](O)[C@H]1C(=O)N2C(C(=O)O)=C(S[C@@H]3CN[C@H](C(O)CC(=O)N[C@H]4CCNC4)C3)[C@H](C)[C@H]12 (stereo partly shown) [Ex. 49] | 0.02 mg/L (≈ 0.0427 µM) | 0.4 mg/L (≈ 0.854 µM) | ≤ 0.01 mg/L | – |
| C[C@@H](O)[C@H]1C(=O)N2C(C(=O)O)=C(S[C@@H]3CN[C@H](C(O)CC(=O)N4CCN(C(=N)N)CC4)C3)[C@H](C)[C@H]12 (stereo partly drawn) [Ex. 51, (1R,5S,6S)-2-[(2S,4S)-2-[2-(4-Guanylpiperazin-1-ylcarbonyl)-1-hydroxyethyl]-pyrrolidin-4-ylthio]-6-[(1R)-1-hydroxyethyl]-1-methyl-1-carbapen-2-em-3-carboxylic acid] | 0.02 mg/L (≈ 0.0392 µM) | 0.2 mg/L (≈ 0.392 µM) | ≤ 0.01 mg/L | – |
| C[C@@H](O)[C@H]1C(=O)N2C(C(=O)O)=C(S[C@@H]3CN[C@H]([C@H](O)CC(=O)N4CC[C@H](N)C4)C3)[C@H](C)[C@H]12 [Ex. 59, (1R,5S,6S)-2-[(2S,4S)-2-[2-[(3S)-3-Aminopyrrolidin-1-ylcarbonyl]-(1R)-1-hydroxyethyl]pyrrolidin-4-ylthio]-6-[(1R)-1-hydroxyethyl]-1-methyl-1-carbapen-2-em-3-carboxylic acid] | 0.02 mg/L (≈ 0.0427 µM) | 0.2 mg/L (≈ 0.427 µM) | ≤ 0.01 mg/L | – |
| C[C@@H](O)[C@H]1C(=O)N2C(C(=O)O)=C(S[C@@H]3CN[C@H]([C@@H](O)CC(=O)N4CC[C@H](N)C4)C3)[C@H](C)[C@H]12 [Ex. 60, (1R,5S,6S)-2-[(2S,4S)-2-[2-[(3S)-3-Aminopyrrolidin-1-ylcarbonyl]-(1S)-1-hydroxyethyl]pyrrolidin-4-ylthio]-6-[(1R)-1-hydroxyethyl]-1-methyl-1-carbapen-2-em-3-carboxylic acid] | 0.02 mg/L (≈ 0.0427 µM) | 0.4 mg/L (≈ 0.854 µM) | ≤ 0.01 mg/L | – |
| C[C@@H](O)[C@H]1C(=O)N2C(C(=O)O)=C(SCCN=CN)C[C@H]12 [Imipenem, imipenem, reference compound] | 0.05 mg/L (≈ 0.167 µM) | 3.1 mg/L (≈ 10.4 µM) | ≤ 0.01 mg/L | exhibits nephrotoxicity |
